{
  "source": "patent US20100048944A1",
  "about": "“INTERACTIONS OF HEDGEHOG AND LIVER X RECEPTOR SIGNALING PATHWAYS” (priority 2006, published 2010)",
  "format_in_all_cases": "cell-based",
  "key": {"[1]": {"test_system": "M2-10B4 marrow stromal cells", "test": "Alkaline phosphatase activity in M2-10B4 marrow stromal cells", "settings": "for Effect on Shh-induced alkaline phosphatase activity / Alkaline Phosphatase Activity: M2-10B4 cells", "from_the_text": "Alkaline phosphatase activity provides a measure of the osteogenic differentiation of cells. […] The oxysterol combination SS contains 22(S)-hydroxycholesterol and 20(S)-hydroxycholesterol in equal molar proportions. An indication of the molar concentration of the oxysterol combination SS refers to the molar concentration of each component of the combination."}, "hedgehog pathway": {"test_system": "hedgehog pathway", "test": "Net effect of LXR agonists on the hedgehog pathway", "from_the_text": "Thus, GW3965 is a hedgehog-inhibiting LXR agonist. […] Thus, 22(R)-hydroxycholesterol is a hedgehog-inhibiting LXR agonist. […] The Oxy13 compound is discussed in international application PCT/US2007/05073, which is hereby incorporated by reference.\nA known hedgehog agonist is contacted with a model cell in an amount known to induce a hedgehog pathway response or hedgehog signaling response in the cell. Any cell that responds to a hedgehog agonist and an LXR agonist can be used as a model cell. The compound is then tested with an assay to measure the level of hedgehog activation or hedgehog signaling. One of skill in the art would know how to select an assay and conduct an assay to measure the level of hedgehog activation or hedgehog signaling. The hedgehog agonist will cause the level of hedgehog activation or signaling to increase above that of a control cell. While the hedgehog agonist is in contact with the cell, the compound being tested is also contacted with the cell. The level of hedgehog activation or signaling is measured. If introducing the compound decreases the level of hedgehog activation or signaling a statistically significant amount below the level when only the hedgehog agonist was in contact with the cell, then the compound is deemed a hedgehog-inhibiting LXR agonist."}, "LXRα and LXRβ": {"test_system": "LXRα and LXRβ", "test": "Inhibition of Shh-induced signaling and alkaline phosphatase activity in siRNA-transfected cells", "settings": "for Ability to inhibit Shh-induced signaling and alkaline phosphatase activity: cells transfected with LXRα and LXRβ siRNA; for Ability to inhibit Shh-induced signaling and alkaline phosphatase activity: blocked or not: cells transfected with control scrambled siRNA", "from_the_text": "Small interfering RNA (siRNA) to LXRα and LXRβ caused an 80-90% inhibition of mRNA expression for these genes, as well as inhibition of ligand-induced expression of LXR target genes, ATP-binding cassette (ABC) transporter proteins ABCA1 and ABCG1."}, "marrow stromal cells": {"test_system": "marrow stromal cells", "test": "Osteogenic differentiation of marrow stromal cells", "settings": "for Effect on oxysterol-induced osteogenic differentiation: marrow stromal cells", "description": "Certain osteogenic oxysterols, such as 20(S)-hydroxycholesterol (20S), induce the osteogenic differentiation of marrow stromal cells by activating the hedgehog signaling pathway. […] Thus, LXR activation can interfere with osteogenic differentiation induced by the activation of hedgehog signaling.\nWhen treated with from 1-10 μM of GW3965 for 8 days, GW3965 inhibited Shh-induced alkaline phosphatase activity."}, "Patched (Ptch)": {"test_system": "Patched (Ptch)", "test": "Q-RT-PCR expression of hedgehog target gene Patched (Ptch) in M2-10B4 cells", "description": "(§1) Activation or inhibition of the hedgehog pathway was assessed by extracting RNA from test cells and using quantitative real time PCR (Q-RT-PCR) to measure the expression of the hedgehog target genes, Gli-1 and Patched (Ptch). […] Expression of Gli-1 and Patched (Ptch) was measured after 72 hours of treatment. FIGS. 2A and 2B present the results of the study. Results from a representative experiment are shown as the mean of triplicate determinations±SD, and expressed as fold induction over control untreated cells."}, "[2]": {"test_system": "C3H10T½ mouse embryonic fibroblasts", "test": "Alkaline phosphatase activity in C3H10T½ cells", "settings": "1-10 μM"}, "M2-10B4 cells": {"test_system": "M2-10B4 cells", "test": "Shh-induced osteocalcin mRNA expression in M2-10B4 cells", "settings": "3 days, 1 μM to 10 μM, relative to Shh alone"}, "[3]": {"test_system": "C3H10T½ mouse embryonic fibroblasts", "test": "Osteocalcin expression in C3H10T½ cells", "settings": "1-10 μM"}, "Gli-1": {"test_system": "Gli-1", "test": "Q-RT-PCR expression of hedgehog target gene Gli-1 in M2-10B4 cells", "description": "as §1"}, "[4]": {"test_system": "Gli-luciferase reporter construct (8Xgli)", "test": "Gli-luciferase reporter assay in M2-10B4 cells", "description": "Activation or inhibition of the hedgehog pathway was assessed by measuring Gli-reporter activity. This provided a direct indication of the activation or inhibition of the hedgehog pathway. A first set of marrow stromal cells, M2-10B4, were transfected with a Gli-luciferase reporter construct (8Xgli) and a second set of M2-10B4 were transfected with an empty reporter construct without Gli response elements (pGL3b). […] Gli-luciferase reporter activity was tested after 48 hours of treatment. FIG. 1 presents the results of the study. Results from a representative experiment are shown as the mean of triplicate determinations±SD, and expressed as fold induction over control untreated cells."}, "[5]": {"settings": "72 hours, SS 5 μM + TO901317 5 μM"}, "[6]": {"settings": "72 hours, SS 5 μM + TO901317 10 μM"}, "[7]": {"settings": "72 hours, Shh 100 ng/mL + TO901317 5 μM"}, "[8]": {"settings": "72 hours, Shh 100 ng/mL + TO901317 10 μM"}},
  "data": [
    {"smiles": "CC(C)CCC[C@](C)(O)[C@H]1CC[C@H]2[C@@H]3CC=C4C[C@@H](O)CC[C@]4(C)[C@H]3CC[C@@]21C", "note": "[20(S)-hydroxycholesterol]", "values": [
      {"measurement": "Induction of alkaline phosphatase activity", "setting": "[1]; marrow stromal cells M2-10B4, oxysterol alone", "result": "induce alkaline phosphatase activity"},
      {"measurement": "Net effect on the hedgehog pathway", "setting": "hedgehog pathway", "result": "activating the hedgehog pathway"}
    ]},
    {"smiles": "CC(C)CC[C@@H](O)[C@@H](C)[C@H]1CC[C@H]2[C@@H]3CC=C4C[C@@H](O)CC[C@]4(C)[C@H]3CC[C@]12C", "note": "[22(R)-hydroxycholesterol]", "values": [
      {"measurement": "Net effect on the hedgehog pathway", "setting": "hedgehog pathway", "result": "inhibiting the hedgehog pathway"}
    ]},
    {"smiles": "C[C@H](CCCC(C)(C)O)[C@H]1CC[C@H]2[C@@H]3CC=C4C[C@@H](O)CC[C@]4(C)[C@H]3CC[C@]12C", "note": "[25-hydroxycholesterol]", "values": [
      {"measurement": "Net effect on the hedgehog pathway", "setting": "hedgehog pathway", "result": "leaves the hedgehog pathway active"}
    ]},
    {"smiles": "O=C(O)Cc1cccc(OCCCN(Cc2cccc(C(F)(F)F)c2Cl)CC(c2ccccc2)c2ccccc2)c1", "note": "[GW3965, 3-[3-[[[2-chloro-3-(trifluoromethyl)phenyl]methyl](2,2-diphenylethyl)amino]propoxy]benzeneacetic acid]", "values": [
      {"measurement": "Effect on Shh-induced alkaline phosphatase activity", "setting": "[1]; 8 days, 1-10 μM", "result": "inhibited"},
      {"measurement": "Ability to inhibit Shh-induced signaling and alkaline phosphatase activity", "setting": "LXRα and LXRβ", "result": "blocked"},
      {"measurement": "Ability to inhibit Shh-induced signaling and alkaline phosphatase activity: blocked or not", "setting": "LXRα and LXRβ", "result": "not"},
      {"measurement": "Effect on Shh-induced osteogenic differentiation", "setting": "marrow stromal cells; M2-10B4 marrow stromal cells", "result": "inhibited"},
      {"measurement": "Effect on oxysterol-induced osteogenic differentiation", "setting": "marrow stromal cells", "result": "block"},
      {"measurement": "Net effect on the hedgehog pathway", "setting": "hedgehog pathway", "result": "inhibiting the hedgehog pathway"}
    ]},
    {"smiles": "C=C(C)CCC[C@](C)(O)C1CCC2C3CC=C4CC(O)CC[C@]4(C)C3CC[C@@]21C", "note": "(stereo partly drawn) [Oxy13]", "values": [
      {"measurement": "Net effect on the hedgehog pathway", "setting": "hedgehog pathway", "result": "activating the hedgehog pathway"}
    ]},
    {"smiles": "O=S(=O)(c1ccccc1)N(CC(F)(F)F)c1ccc(C(O)(C(F)(F)F)C(F)(F)F)cc1", "note": "[TO901317]", "values": [
      {"measurement": "Ptch expression", "setting": "Patched (Ptch); [5]", "result": "about 6 fold induction over control un"},
      {"measurement": "Ptch expression (FIG. 2B; sentence prints Gli-1 expression)", "setting": "Patched (Ptch); [6]", "result": "about 4 fold induction over control un"},
      {"measurement": "Ptch expression", "setting": "Patched (Ptch); [7]", "result": "about the same level as that of the control cells"},
      {"measurement": "Ptch expression", "setting": "Patched (Ptch); [8]", "result": "about the same level as that of the control cells"},
      {"measurement": "Ptch expression", "setting": "Patched (Ptch); TO901317 alone, 5 μM or 10 μM", "result": "about the same as the control cells"},
      {"measurement": "Effect on Shh-induced alkaline phosphatase activity", "setting": "[1]; 3 days, concentrations as low as 1 μM", "result": "inhibited"},
      {"measurement": "Alkaline Phosphatase Activity", "setting": "[1]; SS 5 μM + TO901317 5 μM", "result": "198 ± 17 units/mg protein ± SD"},
      {"measurement": "Alkaline Phosphatase Activity", "setting": "[1]; SS 5 μM + TO901317 10 μM", "result": "61 ± 12 units/mg protein ± SD"},
      {"measurement": "Alkaline Phosphatase Activity", "setting": "[1]; Shh 50 ng/ml + TO901317 5 μM", "result": "3±2 units/mg protein ± SD"},
      {"measurement": "Effect on alkaline phosphatase activity", "setting": "[2]", "result": "inhibited"},
      {"measurement": "Effect on Shh-induced osteocalcin mRNA expression", "setting": "M2-10B4 cells", "result": "inhibited"},
      {"measurement": "Ability to inhibit Shh-induced signaling and alkaline phosphatase activity", "setting": "LXRα and LXRβ", "result": "blocked"},
      {"measurement": "Ability to inhibit Shh-induced signaling and alkaline phosphatase activity: blocked or not", "setting": "LXRα and LXRβ", "result": "not"},
      {"measurement": "Effect on oxysterol-induced osteogenic differentiation", "setting": "marrow stromal cells", "result": "block"},
      {"measurement": "Effect on osteocalcin expression", "setting": "[3]", "result": "inhibited"},
      {"measurement": "Net effect on the hedgehog pathway", "setting": "hedgehog pathway", "result": "inhibiting the hedgehog pathway"},
      {"measurement": "Gli-1 expression", "setting": "Gli-1; [5]", "result": "about 8 fold induction over control un"},
      {"measurement": "Gli-1 expression", "setting": "Gli-1; [6]", "result": "about 7 fold induction over control un"},
      {"measurement": "Gli-1 expression", "setting": "Gli-1; [7]", "result": "about 7 fold induction over control un"},
      {"measurement": "Gli-1 expression", "setting": "Gli-1; [8]", "result": "about 3 fold induction over control un"},
      {"measurement": "Gli-1 expression", "setting": "Gli-1; TO901317 alone, 5 μM or 10 μM", "result": "less than the control cells"},
      {"measurement": "Gli-luciferase reporter activity", "setting": "[4]; 48 hours, SS 5 μM + TO901317 5 μM", "result": "about 2.5 fold induction over control un"},
      {"measurement": "Gli-luciferase reporter activity", "setting": "[4]; 48 hours, SS 5 μM + TO901317 10 μM", "result": "about the same level as of the control cells"},
      {"measurement": "Gli-luciferase reporter activity", "setting": "[4]; 48 hours, Shh 200 ng/mL + TO901317 5 μM", "result": "about the same level as of the control cells"},
      {"measurement": "Gli-luciferase reporter activity", "setting": "[4]; TO901317 alone, 5 μM or 10 μM", "result": "less than the control cells"}
    ]}
  ]
}
